Assay results as given in patent publication US20240003879A1, “METHODS FOR DIAGNOSIS AND MONITORING OF TOXIC EPIDERMAL NECROLYSIS” (INSERM (INSTITUT NATIONAL DE LA SANTÉ ET DE LA RECHERCHE …, priority 2020, published 2024).
“Also recorded” adds a separate entry of the source.

Experiments:
[1] = test system: relapsed or refractory multiple myeloma; settings: cited from earlier work
[2] = test system: plasmablasts and NK cells; settings: cited from earlier work
[3] = test system: relapsed or refractory multiple myeloma; settings: monotherapy or with dexamethasone or dexamethasone and an immunomodulatory drug; RRMM; doses up to 16 mg/kg intravenous infusion; cited from earlier work
NK cells = settings: preclinical data; cited from earlier work
[4] = test system: human CD45+ cells (PBMCs from a TEN patient); assay: Human PBMC expansion in lamotrigine- versus vehicle-treated NSG recipient mice; assay type: in vivo, mouse
Protocol: NSG animals were adoptively transferred at day 0 with 1.10^6 millions PBMCs collected from a TEN patient, 1 year after disease recovery. Animals were then administrated with lamotrigine (the culprit drug; 0.1 mg/kg/day) or vehicle by oral gavage, every day, from day 4. Results depict the kinetic of human CD45+ cell expansion measured by flow cytometry in the blood of NSG mice throughout the protocol, or the spleen at day 29. Results are expressed as mean and individual % of humanization, calculated according to the following formula: % human CD45+ cells/% (mouse+human) CD45+ cells. Six mice per group were used in this experiment. NSG animals were adoptively transferred at day 0 with 1.10^6 millions PBMCs collected from a TEN patient (1 year after disease recovery) or from a healthy donor. Animals were then administrated with lamotrigine (the culprit drug; 0.1 mg/kg/day) or vehicle, by oral gavage every day, from day 4. Results depict the expansion of human CD45+ cells measured by flow cytometry in the spleen of NSG mice, 29 days after cell transfer. Results are expressed as mean and individual % of humanization, calculated according to the following formula: % human CD45+ cells/% (mouse+human) CD45+ cells. Six mice per group were used in this experiment. NSG animals were adoptively transferred at day 0 with 1.10^6 millions PBMCs collected from a TEN patient (1 year after disease recovery). Animals were then administrated with lamotrigine (the culprit drug; 0.1 mg/kg/day), by oral gavage every day, from day 4. Results depict the expression of CD38 (A) and Granzyme B and Granulysin (B) markers on CD4+ and CD8+ T cells as measured by flow cytometry in the spleen of NSG mice, 43 days after cell transfer. Model description: We generated a surrogate model of TEN disease in mouse, by reconstituting NSG animals with 1.10^6 millions of peripheral blood mononuclear cells (PBMCs) collected from a TEN patient, 1 year after disease recovery. The patients' T cells were then reactivated with the offending drug delivered to animals by oral gavage.

[5] = test system: Skw3 control transductant 17D (Abacavir-allergic donor); assay: TCR-transductant stimulation assay, control transductant 17D; assay type: cell-based, human; settings: control 17D, 24 h, heterologous EBV-transformed B cells, no drug 1.4
Source text: (§1) Skw3 cell lines (Leibniz Institute DSMZ, Brunswick, Germany, (50)) were transduced as described previously (51). […] The resulting retroviruses were used to transduce the TCR-defective Skw3 cell line, which also expresses the human CD8 coreceptor. The TCR-transduced cells outgrowing in selective medium were picked, and the expression of the correct TCR α and β was further assessed by flow cytometry, using a FACS-Canto-I device (BD-Biosciences, San Jose, CA, USA). The transduced cells with stable TCR expression were selected for assessment of reactivity and specificity, which was measured by TCR-induced CD69 expression. Skw3 cell lines expressing the cognate TCR α and β chains were cocultured with autologous EBV-transformed B-lymphoblastoid cell lines (52) at 1:2 ratio at 37° C. Tested drugs were added to the cocultures with the indicated concentrations. After 24 h, cells were stained with anti-human CD3 (Biolegend) and anti-human CD69 (Biolegend) and analysed by flow cytometry. […] Experiments were repeated at least 2 times. […] Heterologous EBV-transformed B cells were also used to stimulate control transductants.

[6] = test system: TCRαβ Skw3 transfectant C2 (TCR of top clone of patient TEN-7); assay type: cell-based, human; settings: 24 h, heterologous PBMCs from healthy donors, no drug 31.7
Source text: Skw3 cell lines (Leibniz Institute DSMZ, Brunswick, Germany, (50)) were transduced as described previously (51). […] The resulting retroviruses were used to transduce the TCR-defective Skw3 cell line, which also expresses the human CD8 coreceptor. The TCR-transduced cells outgrowing in selective medium were picked, and the expression of the correct TCR α and β was further assessed by flow cytometry, using a FACS-Canto-I device (BD-Biosciences, San Jose, CA, USA). The transduced cells with stable TCR expression were selected for assessment of reactivity and specificity, which was measured by TCR-induced CD69 expression. Skw3 cell lines expressing the cognate TCR α and β chains were cocultured with autologous EBV-transformed B-lymphoblastoid cell lines (52) at 1:2 ratio at 37° C. Tested drugs were added to the cocultures with the indicated concentrations. After 24 h, cells were stained with anti-human CD3 (Biolegend) and anti-human CD69 (Biolegend) and analysed by flow cytometry. […] Experiments were repeated at least 2 times. […] Then, the productive rearranged TCRα and TCRβ chains were transduced into Skw3 cells, a TCR defective lymphoma line (28) (data not shown). […] The following day, we measured CD69 expression at the surface of Skw3 cells, as marker for TCR stimulation. […]

[7] = test system: Skw3 control transductant UNO H13 (Sulfamethoxazole-allergic donor); assay: TCR-transductant stimulation assay, control transductant UNO H13; assay type: cell-based, human; settings: 24 h, heterologous EBV-transformed B cells, no drug 5.2
Source text: as §1

TAK-079: CD38-binding fully human IgG 1 λ mAb being developed by Takeda
objective response rate ([1]; heavily pre-treated patients with RRMM, subcutaneous injection): 43%
safety/tolerability in patients ([1]; human, in vivo, sc): safe and well-tolerated
tolerability in healthy populations ([2]; healthy populations): well tolerated
depletion of plasmablasts and NK cells ([2]; subcutaneous injection): more durable in depleting plasmablasts and NK cells

MOR202: fully human anti-CD38 antibody being developed by Morphosys (CAS Number 2197112-39-1)
safety and efficacy [3]: safe and effective
effect on NK cells (NK cells): reduces NK cells

Nc1nnc(-c2cccc(Cl)c2Cl)c(N)n1 [lamotrigine]
expanded CD8+ T cells expressing CD38, Granzyme B and Granulysin markers ([4]; lamotrigine 0.1 mg/kg/day from day 4, spleen, 43 days after cell transfer (FIG. 11)): significant part
number of animals with a high % of humanization, culprit drug group versus vehicle group ([4]; lamotrigine 0.1 mg/kg/day oral gavage from day 4, TEN patient PBMCs, blood and spleen, day 29 (FIG. 9)): largely superior
proliferation/expansion of TEN PBMCs versus healthy donor PBMCs in response to lamotrigine ([4]; lamotrigine 0.1 mg/kg/day oral gavage from day 4, spleen, 29 days after cell transfer (FIG. 10)): Preferential expansion of TEN PBMCs; also recorded: superior ability of TEN cells to proliferate

COc1ccnc(C[S+]([O-])c2nc3ccc(OC(F)F)cc3[nH]2)c1OC (centres unmarked) [Pantoprazole]
% of CD69 expression in CD3+ transfectants, Concentration 1 ([5]; Abacavir 1 μg/ml, Pantoprazole 12.5 μg/ml): 1.8%
% of CD69 expression in CD3+ transfectants, Concentration 2 ([5]; Abacavir 10 μg/ml, Pantoprazole 25 μg/ml): 1.8%
% of CD69 expression in CD3+ transfectants, Concentration 3 ([5]; Abacavir 20 μg/ml, Pantoprazole 50 μg/ml): 1.7%
% of CD69 expression in CD3+ transfectants, Concentration 2 ([6]; Pantoprazole 10 μg/ml): 40.1%
% of CD69 expression in CD3+ transfectants, Concentration 3 ([6]; Pantoprazole 50 μg/ml): 47.4%

CC(C)Cc1ccc(C(C)C(=O)O)cc1 (centres unmarked) [Ibuprofen]
% of CD69 expression in CD3+ transfectants, Concentration 1 ([7]; Ibuprofen 20 μg/ml): 4.6%
% of CD69 expression in CD3+ transfectants, Concentration 2 ([7]; Ibuprofen 100 μg/ml): 10.5%
% of CD69 expression in CD3+ transfectants, Concentration 3 ([7]; Ibuprofen 200 μg/ml): 12.4%
